Reference: patent EP1145714A1, “DRUGS” (Takeda Chemical Industries, Ltd., priority 1998, dated 2000)

Test system: acute and delayed vomiting induced by cisplatin in ferrets
Assay: Acute and delayed vomiting induced by cisplatin in ferrets, oral dosing once or twice daily
Format: in vivo
Conditions: cisplatin 5 mg/kg i.p.
Experimental: Male 4 to 6 ferrets (1.2 to 2.2 kg) per one group were used. Cisplatin was intraperitoneally given at 5 mg/5ml/kg. 30 minutes prior to cisplatin administration and 24 and 48 hours after cisplatin administration, predetermined doses of the compound No. 3 were orally given in case of dosing once daily. 30 minutes prior to cisplatin administration and 12, 24, 36, 48 and 60 hours after cisplatin administration, predetermined doses of the compound No. 3 were orally given in case of dosing twice daily. 30 minutes prior to the dosing of the compound No. 3, a small amount of a feed was given to the animals in any of the cases. Similarly, a predetermined volume of 0.5 % methyl cellulose solution was similarly given orally to a control animal group under no fasting. A predetermined dose of ondansetron was orally given to the animals under fasting. To a control animal group of ondansetron, a predetermined volume of physiological saline was orally given to the animals under fasting. The frequency of vomiting was counted in number, up to 72 hours after cisplatin administration.
The compound No. 3 was suspended in 0.5 % methyl cellulose solution, for oral dosing at predetermined doses at a ratio of 1 ml per 1 kg body weight. An injection of ondansetron at 0.2 w/v % concentration was orally given at a predetermined volume. Additionally, 0.5 % methyl cellulose solution was orally given at a ratio of 1 ml per 1 kg body weight, while physiological saline was orally given at a ratio of 0.5 to 1.5 ml per 1 kg body weight. The data relating to the frequency of vomiting, the time period (latency) until first vomiting and the time period from the occurrence of vomiting to the termination thereof were statistically analyzed by the Dunnett test, with reference to the difference from the control group.
The acute vomiting suppression ratio, delayed vomiting suppression ratio and total vomiting suppression ratio were calculated by the following formula. [Frequency of retching or vomiting in control] - [Frequency of retching or vomiting in animals dosed with compound No. 3] / [Frequency of retching or vomiting in control] x 100 (%) [formula]

[1] = 0.3 mg/kg × 2 p.o., twice daily
[2] = 1 mg/kg p.o. twice daily, listed as compound No. 3
[3] = 3 mg/kg p.o. twice daily, listed as compound No. 3
[4] = 10 mg/kg p.o. once daily, listed as compound No. 3

Structure (SMILES): Cc1ccc(-c2c3n(c(=O)c4ncccc24)CC[C@@H](C)CN(Cc2cc(C(F)(F)F)cc(C(F)(F)F)c2)C3=O)cc1 [Cpd. No.3, (9R)-7-[3,5-bis(trifluoromethyl)benzyl]-6,7,8,9,10,11-hexahydro-9-methyl-5-(4-methylphenyl)-6,13-dioxo-13H-[1,4]diazocino[2,1-g][1,7]naphthylidine]
- On days 1-2(24-48 hours): frequency of retching and vomiting (mean ± SD) [1]: 209.3 ± 14.0 b
- On days 1-2(24-48 hours): number of ferrets with vomiting/ number of tested ferrets [1]: 4/4
- Total frequency of retching and vomiting (on days 0-2; 0-72 hours) [1]: 209.3 ± 14.0 b
- Acute vomiting suppression ratio (0 to 24 hours after cisplatin dosing) (1 mg/kg p.o. twice daily): 0 % NS
- Delayed vomiting suppression ratio (24 to 72 hours after cisplatin dosing) (1 mg/kg p.o. twice daily): 70 % a
- Total vomiting suppression ratio (0 to 72 hours after cisplatin dosing) (1 mg/kg p.o. twice daily): 54 % b
- Delayed vomiting suppression ratio (24 to 72 hours after cisplatin dosing) [2]: 70%
- Total vomiting suppression ratio (0 to 72 hours after cisplatin dosing) [2]: 54%
- Duration (in hour; mean ± SD) (1 mg/kg × 2 p.o., twice daily): 64.8 ± 2.2 h
- Latency (in hour; mean ± SD) (1 mg/kg × 2 p.o., twice daily): 3.4 ± 1.1 h
- On day 0 (0-24 hours): frequency of retching and vomiting (mean ± SD) (1 mg/kg × 2 p.o., twice daily): 71.8 ± 20.6
- On day 0 (0-24 hours): number of ferrets with vomiting/ number of tested ferrets (1 mg/kg × 2 p.o., twice daily): 4/4
- On days 1-2(24-48 hours): frequency of retching and vomiting (mean ± SD) (1 mg/kg × 2 p.o., twice daily): 108.0 ± 9.6 b
- On days 1-2(24-48 hours): number of ferrets with vomiting/ number of tested ferrets (1 mg/kg × 2 p.o., twice daily): 4/4
- Total frequency of retching and vomiting (on days 0-2; 0-72 hours) (1 mg/kg × 2 p.o., twice daily): 179.8 ± 21.0 b
- Delayed vomiting suppression ratio (0 to 72 hours after cisplatin dosing) (3 mg/kg p.o. once daily, listed as compound No. 3): 42%
- Acute vomiting suppression ratio (0 to 24 hours after cisplatin dosing) (3 mg/kg p.o. twice daily): 82 % NS
- Delayed vomiting suppression ratio (24 to 72 hours after cisplatin dosing) (3 mg/kg p.o. twice daily): 59 % b
- Total vomiting suppression ratio (0 to 72 hours after cisplatin dosing) (3 mg/kg p.o. twice daily): 61 % b
- Acute vomiting suppression ratio (0 to 24 hours after cisplatin dosing) [3]: 82%
- Delayed vomiting suppression ratio (24 to 72 hours after cisplatin dosing) [3]: 59%
- Acute vomiting suppression ratio (0 to 24 hours after cisplatin dosing) (3 mg/kg p.o., once daily): 48 % NS
- Delayed vomiting suppression ratio (0 to 72 hours after cisplatin dosing) (3 mg/kg p.o., once daily): 42 % a
- Delayed vomiting suppression ratio (24 to 72 hours after cisplatin dosing) (3 mg/kg p.o., once daily): 40 % NS
- Duration (in hour; mean ± SD) (3 mg/kg p.o., once daily): 61.2 ± 1.2 h
- Latency (in hour; mean ± SD) (3 mg/kg p.o., once daily): 7.8 ± 1.1 h
- On day 0 (0-24 hours): frequency of retching and vomiting (mean ± SD) (3 mg/kg p.o., once daily): 56.8 ± 18.4
- On day 0 (0-24 hours): number of ferrets with vomiting/ number of tested ferrets (3 mg/kg p.o., once daily): 4/4
- On days 1-2(24-48 hours): frequency of retching and vomiting (mean ± SD) (3 mg/kg p.o., once daily): 209.5±23.6
- On days 1-2(24-48 hours): number of ferrets with vomiting/ number of tested ferrets (3 mg/kg p.o., once daily): 4/4
- Total frequency of retching and actual vomiting (on days 0-2; 0-72 hours) (3 mg/kg p.o., once daily): 266.3 ± 20.6 a
- Duration (in hour; mean ± SD) (3 mg/kg × 2 p.o., twice daily): 40.9 ± 13.9 h
- Latency (in hour; mean ± SD) (3 mg/kg × 2 p.o., twice daily): 25.8 ± 10.7 h
- On day 0 (0-24 hours): frequency of retching and vomiting (mean ± SD) (3 mg/kg × 2 p.o., twice daily): 6.0 ± 4.5
- On day 0 (0-24 hours): number of ferrets with vomiting/ number of tested ferrets (3 mg/kg × 2 p.o., twice daily): 2/4
- On days 1-2(24-48 hours): frequency of retching and vomiting (mean ± SD) (3 mg/kg × 2 p.o., twice daily): 145.0 ± 50.5 b
- On days 1-2(24-48 hours): number of ferrets with vomiting/ number of tested ferrets (3 mg/kg × 2 p.o., twice daily): 4/4
- Total frequency of retching and vomiting (on days 0-2; 0-72 hours) (3 mg/kg × 2 p.o., twice daily): 150.8 ± 53.1 b
- Acute vomiting suppression ratio (0 to 24 hours after cisplatin dosing) [4]: 83%
- Delayed vomiting suppression ratio (24 to 72 hours after cisplatin dosing) [4]: 65%
- Acute vomiting suppression ratio (0 to 24 hours after cisplatin dosing) (10 mg/kg p.o., once daily): 83 % NS
- Delayed vomiting suppression ratio (0 to 72 hours after cisplatin dosing) (10 mg/kg p.o., once daily): 70 % b
- Delayed vomiting suppression ratio (24 to 72 hours after cisplatin dosing) (10 mg/kg p.o., once daily): 65 % a
- Duration (in hour; mean ± SD) (10 mg/kg p.o., once daily): 51.4 ± 7.0 a hour
- Effect on delayed vomiting induced by cisplatin (in words) (10 mg/kg p.o., once daily): prominently suppressed
- Latency (in hour; mean ± SD) (10 mg/kg p.o., once daily): 16.2 ± 5.6 h
- On day 0 (0-24 hours): frequency of retching and vomiting (mean ± SD) (10 mg/kg p.o., once daily): 19.0 ± 11.0 b
- On day 0 (0-24 hours): number of ferrets with vomiting/ number of tested ferrets (10 mg/kg p.o., once daily): 3/4
- On days 1-2(24-48 hours): frequency of retching and vomiting (mean ± SD) (10 mg/kg p.o., once daily): 120.5 ± 5.0 a
- On days 1-2(24-48 hours): number of ferrets with vomiting/ number of tested ferrets (10 mg/kg p.o., once daily): 4/4
- Total frequency of retching and actual vomiting (on days 0-2; 0-72 hours) (10 mg/kg p.o., once daily): 139.5 ± 8.3 b
